Results from US8748448B2, “Combination analgesic employing opioid agonist and neutral antagonist” (AIKO Biotechnology, priority 2007, dated 2014).
Entries after “also recorded” stand apart in the source; their conditions may differ.

Legend:
[1] = test system: morphine-induced slowing of gastrointestinal transit; assay: Oral-cecal transit time (lactulose-hydrogen breath test) with 10 mg morphine i.v.; assay type: in vivo, human
[2] = test system: hydrocodone-induced antinociception; assay: 55° C. warm-water tail-flick assay: inhibition of hydrocodone-induced antinociception; assay type: in vivo, mice; conditions: for time of peak effect of antinociception inhibition: hydrocodone 3.2 mg/kg i.v.

6β-naltrexol
effect of 20 mg on morphine's GI effects ([1]; 20 mg i.v., 10 mg morphine i.v.): completely blocking; also recorded: completely suppressing
peripheral over central potency ([1]; humans): at least tenfold
Antinociception ID50 ([2]; antagonist i.v. pretreatment, hydrocodone A90 3.2 mg/kg i.v.): 0.222 mg/kg
Antinociception ID50 ([2]; antagonist p.o. co-administered with hydrocodone A90 32 mg/kg p.o.): 12.3 mg/kg
Antinociception ID50 ([2]; antagonist p.o. pretreatment, hydrocodone A90 3.2 mg/kg i.v.): 2.35 mg/kg
time of peak effect of antinociception inhibition ([2]; i.v. administration): 90 min
time of peak effect of antinociception inhibition ([2]; p.o. administration): 120 min
